From US20260250290A1 (BRISTOL-MYERS SQUIBB COMPANY, priority 2023, published 2026)

These molecules were tested against T1, full length SGK1 (Homo sapiens, UniProt O00141) (assay: SGK1 inhibition Assay A (Caliper LabChip electrophoretic separation of fluorescent peptide substrate and phosphorylated product)). Details: Assay A; 20 μM ATP, 40 min incubation; read-out: SGK1 IC50.
T1 construct: 125 μM full length SGK1 (Life Technologies Part #PR7358A); purchased Life Technologies PR7358A
T1 sequence (O00141 1-431): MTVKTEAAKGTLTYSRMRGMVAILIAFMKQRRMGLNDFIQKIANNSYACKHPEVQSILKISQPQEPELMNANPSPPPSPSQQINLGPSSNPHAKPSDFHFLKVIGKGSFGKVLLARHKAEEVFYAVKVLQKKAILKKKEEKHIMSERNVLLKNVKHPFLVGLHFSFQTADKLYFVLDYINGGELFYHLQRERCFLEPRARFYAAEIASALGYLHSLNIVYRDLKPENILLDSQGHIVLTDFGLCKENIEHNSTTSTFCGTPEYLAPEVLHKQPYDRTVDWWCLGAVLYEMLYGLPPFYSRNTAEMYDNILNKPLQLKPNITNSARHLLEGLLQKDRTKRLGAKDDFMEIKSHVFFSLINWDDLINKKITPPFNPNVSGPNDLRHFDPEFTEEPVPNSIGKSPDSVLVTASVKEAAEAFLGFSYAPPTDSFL
Assay type: biochemical

SMILES	IC50 [nM]
CC(=O)N1CC=C(c2cc(N3CCC[C@@H](NC(=O)c4cccc(OCCN5CCN(C)CC5)n4)C3)c3c(N)ncnn23)C1 [Example 701, (R)-N-(1-(7-(1-acetyl-2,5-dihydro-1H-pyrrol-3-yl)-4-aminopyrrolo[2,1-f][1,2,4]triazin-5-yl)piperidin-3-yl)-6-(2-(4-methylpiperazin-1-yl)ethoxy)picolinamide]	11
CC(=O)N1CC=C(c2cc(N3CCC[C@@H](NC(=O)c4cccc(OCCN(C)C)n4)C3)c3c(N)ncnn23)C1 [Example 702, (R)-N-(1-(7-(1-acetyl-2,5-dihydro-1H-pyrrol-3-yl)-4-aminopyrrolo[2,1-f][1,2,4]triazin-5-yl)piperidin-3-yl)-6-(2-(dimethylamino)ethoxy) picolinamide]	12
CC(=O)N1CC=C(c2cc(N3CCC[C@@H](NC(=O)c4cccc(N5CCOCC5)n4)C3)c3c(N)ncnn23)C1 [Example 703, (R)-N-(1-(7-(1-acetyl-2,5-dihydro-1H-pyrrol-3-yl)-4-aminopyrrolo[2,1-f][1,2,4]triazin-5-yl)piperidin-3-yl)-6-morpholinopicolinamide]	29
CC(=O)N1CC=C(c2cc(N3CCC[C@@H](NC(=O)c4cccc(N5CCN(C)CC5)n4)C3)c3c(N)ncnn23)C1 [Example 704, (R)-N-(1-(7-(1-acetyl-2,5-dihydro-1H-pyrrol-3-yl)-4-aminopyrrolo[2,1-f][1,2,4]triazin-5-yl)piperidin-3-yl)-6-(4-methylpiperazin-1-yl)picolinamide]	11
CC(=O)N1CC=C(c2cc(N3CCC[C@@H](NC(=O)C4CC5(C4)CC(F)(F)C5)C3)c3c(N)ncnn23)C1 [Example 705, (R)-N-(1-(7-(1-acetyl-2,5-dihydro-1H-pyrrol-3-yl)-4-aminopyrrolo[2,1-f][1,2,4]triazin-5-yl)piperidin-3-yl)-6,6-difluorospiro[3.3]heptane-2-carboxamide]	760
CC(=O)N1CC=C(c2cc(N3CCC[C@@H](NC(=O)c4ccnc(OCCN(C)C)c4)C3)c3c(N)ncnn23)C1 [Example 706, (R)-N-(1-(7-(1-acetyl-2,5-dihydro-1H-pyrrol-3-yl)-4-aminopyrrolo[2,1-f][1,2,4]triazin-5-yl)piperidin-3-yl)-2-(2-(dimethylamino)ethoxy) isonicotinamide]	57
CC(=O)N1CC=C(c2cc(N3CCC[C@@H](NC(=O)c4ccnc(OCCN5CCOCC5)c4)C3)c3c(N)ncnn23)C1 [Example 707, (R)-N-(1-(7-(1-acetyl-2,5-dihydro-1H-pyrrol-3-yl)-4-aminopyrrolo[2,1-f][1,2,4]triazin-5-yl)piperidin-3-yl)-2-(2-morpholinoethoxy) isonicotinamide]	68
CC(=O)N1CC=C(c2cc(N3CCC[C@@H](NC(=O)c4nccn4C)C3)c3c(N)ncnn23)C1 [Example 708]	494
CC(=O)N1CC=C(c2cc(N3CCC[C@@H](NC(=O)c4cccc(OC5CCN(C)CC5)n4)C3)c3c(N)ncnn23)C1 [Example 709, (R)-N-(1-(7-(1-acetyl-2,5-dihydro-1H-pyrrol-3-yl)-4-aminopyrrolo[2,1-f][1,2,4]triazin-5-yl)piperidin-3-yl)-6-((1-methylpiperidin-4-yl)oxy)picolinamide]	16
CC(=O)N1CC=C(c2cc(N3CCC[C@@H](NC(=O)c4cccc(C5CC5)n4)C3)c3c(N)ncnn23)C1 [Example 710, (R)-N-(1-(7-(1-acetyl-2,5-dihydro-1H-pyrrol-3-yl)-4-aminopyrrolo[2,1-f][1,2,4]triazin-5-yl)piperidin-3-yl)-6-cyclopropylpicolinamide,]	13
CC(=O)N1CC=C(c2cc(N3CCC[C@@H](NC(=O)c4ccc(C#N)s4)C3)c3c(N)ncnn23)C1 [Example 714, (R)-N-(1-(7-(1-acetyl-2,5-dihydro-1H-pyrrol-3-yl)-4-aminopyrrolo[2,1-f][1,2,4]triazin-5-yl)piperidin-3-yl)-5-cyanothiophone-2-carboxamide]	7
COc1cccc(C(=O)N[C@@H]2CCCN(c3cc(C4=CCN(C(C)=O)C4)n4ncnc(N)c34)C2)n1 [Example 715, (R)-N-(1-(7-(1-acetyl-2,5-dihydro-1H-pyrrol-3-yl)-4-aminopyrrolo[2,1-f][1,2,4]triazin-5-yl)piperidin-3-yl)-6-methoxypicolinamide]	22
CC(=O)N1CC=C(c2cc(N3CCC[C@@H](NC(=O)c4ccnc(N(C)C)c4)C3)c3c(N)ncnn23)C1 [Example 717]	39
CC(=O)N1CC=C(c2cc(N3CCC[C@@H](NC(=O)c4csc(Cl)c4)C3)c3c(N)ncnn23)C1 [Example 719]	5
CC(=O)N1CC=C(c2cc(N3CCC[C@@H](NC(=O)c4cccnc4OCCN4CCN(C)CC4)C3)c3c(N)ncnn23)C1 [Example 722, (R)-N-(1-(7-(1-acetyl-2,5-dihydro-1H-pyrrol-3-yl)-4-aminopyrrolo[2,1-f][1,2,4]triazin-5-yl)piperidin-3-yl)-2-(2-(4-methylpiperazin-1-yl)ethoxy)nicotinamide]	114
CC(=O)N1CC=C(c2cc(N3CCC[C@@H](NC(=O)c4cccc(N(C)C)n4)C3)c3c(N)ncnn23)C1 [Example 725, (R)-N-(1-(7-(1-acetyl-2,5-dihydro-1H-pyrrol-3-yl)-4-aminopyrrolo[2,1-f][1,2,4]triazin-5-yl)piperidin-3-yl)-6-(dimethylamino) picolinamide]	26
CC(=O)N1CC=C(c2cc(N3CCC[C@@H](NC(=O)c4cccc(F)n4)C3)c3c(N)ncnn23)C1 [Example 726, :(R)-N-(1-(7-(1-acetyl-2,5-dihydro-1H-pyrrol-3-yl)-4-aminopyrrolo[2,1-f][1,2,4]triazin-5-yl)piperidin-3-yl)-6-fluoropicolinamide]	61
CC(=O)N1CC=C(c2cc(N3CCC[C@@H](NC(=O)c4cccc(CN5CCN(C)CC5)n4)C3)c3c(N)ncnn23)C1 [Example 727, (R)-N-(1-(7-(1-acetyl-2,5-dihydro-1H-pyrrol-3-yl)-4-aminopyrrolo[2,1-f][1,2,4]triazin-5-yl)piperidin-3-yl)-6-((4-methylpiperazin-1-yl)methyl)picolinamide]	161
CC(=O)N1CC=C(c2cc(N3CCC[C@@H](NC(=O)c4ccccn4)C3)c3c(N)ncnn23)C1 [Example 728, (R)-N-(1-(7-(1-acetyl-2,5-dihydro-1H-pyrrol-3-yl)-4-aminopyrrolo[2,1-f][1,2,4]triazin-5-yl)piperidin-3-yl)picolinamide]	81

Continued, values first:

IC50 [nM]	SMILES
25	CC(=O)N1CC=C(c2cc(N3CCC[C@@H](NC(=O)c4cccc(OCCN5CCOCC5)n4)C3)c3c(N)ncnn23)C1 [Example 700, (R)—N-(1-(7-(1-acetyl-2,5-dihydro-1H-pyrrol-3-yl)-4-aminopyrrolo[2,1-f][1,2,4]triazin-5-yl)piperidin-3-yl)-6-(2-morpholinoethoxy)picolinamide]
997	CC(=O)N1CC=C(c2cc(N3CCC[C@@H](NC(=O)C4CC(F)(F)C4)C3)c3c(N)ncnn23)C1 [Example 711, (R)-N-(1-(7-(1-acetyl-2,5-dihydro-1H-pyrrol-3-yl)-4-aminopyrrolo[2,1-f][1,2,4]triazin-5-yl)piperidin-3-yl)-3,3-difluorocyclobutane-1-carboxamide]
1300	CC(=O)N1CC=C(c2cc(N3CCC[C@@H](NC(=O)C4CCC(F)(F)C4)C3)c3c(N)ncnn23)C1 (stereo partly drawn) [Example 712, N-((R)-1-(7-(1-acetyl-2,5-dihydro-1H-pyrrol-3-yl)-4-aminopyrrolo[2,1-f][1,2,4]triazin-5-yl)piperidin-3-yl)-3,3-difluorocyclopentane-1-carboxamide]
59	CC(=O)N1CC=C(c2cc(N3CCC[C@@H](NC(=O)c4ccnc(OCCN5CCN(C)CC5)c4)C3)c3c(N)ncnn23)C1 [Example 713]
23	COc1cc(C(=O)N[C@@H]2CCCN(c3cc(C4=CCN(C(C)=O)C4)n4ncnc(N)c34)C2)ccn1 [Example 716, (R)-N-(1-(7-(1-acetyl-2,5-dihydro-1H-pyrrol-3-yl)-4-aminopyrrolo[2,1-f][1,2,4]triazin-5-yl)piperidin-3-yl)-2-methoxyisonicotinamide]
26	COc1ncccc1C(=O)N[C@@H]1CCCN(c2cc(C3=CCN(C(C)=O)C3)n3ncnc(N)c23)C1 [Example 718, (R)-N-(1-(7-(1-acetyl-2,5-dihydro-1H-pyrrol-3-yl)-4-aminopyrrolo[2,1-f][1,2,4]triazin-5-yl)piperidin-3-yl)-2-methoxynicotinamide]
5	CC(=O)N1CC=C(c2cc(N3CCC[C@@H](NC(=O)c4csc(C)c4)C3)c3c(N)ncnn23)C1 [Example 720, (R)-N-(1-(7-(1-acetyl-2,5-dihydro-1H-pyrrol-3-yl)-4-aminopyrrolo[2,1-f][1,2,4]triazin-5-yl)piperidin-3-yl)-5-methylthiophene-3-carboxamide]
10	COc1cscc1C(=O)N[C@@H]1CCCN(c2cc(C3=CCN(C(C)=O)C3)n3ncnc(N)c23)C1 [Example 721, (R)-N-(1-(7-(1-acetyl-2,5-dihydro-1H-pyrrol-3-yl)-4-aminopyrrolo[2,1-f][1,2,4]triazin-5-yl)piperidin-3-yl)-4-methoxythiophene-3-carboxamide]
267	CC(=O)N1CC=C(c2cc(N3CCC[C@@H](NC(=O)c4cccnc4OCCN(C)C)C3)c3c(N)ncnn23)C1 [Example 723, (R)-N-(1-(7-(1-acetyl-2,5-dihydro-1H-pyrrol-3-yl)-4-aminopyrrolo[2,1-f][1,2,4]triazin-5-yl)piperidin-3-yl)-2-(2-(dimethylamino)ethoxy) nicotinamide]
